What all share (format): cell-based, human
For experiment [1], the system named is A2780 and CP70 ovarian cancer cells. As to the kind of experiment: Sphere formation assay. The settings on record: for sphere formation efficiency: control and shALDH1 cells (A2780, CP70, CP70-vector, CP70-shALDH1), 1 μM Thiostrepton or 10 μM DAPT, 10 days. On the procedure: FIGS. 1A-1F show ALDH1 regulates stemness and tumourigenic ability in ovarian cancer cells. […] A total of 1×10^3 A2780 (upper panel) and CP70 (lower panel) cells were seeded into a 96-well plate to evaluate the cells' sphere formation ability (scale bar=200 μm). DEAB was used to inhibit the reaction of ALDH1 and also served as a negative control. […] The β-actin was used as a protein loading control. The histogram represents the relative fold change of protein expression (right panel). […] A2780-ALDH1 (upper panel) and CP70-shALDH1 (lower panel) cells were seeded into 96-well plates to evaluate their sphere formation ability (scale bar=200 μm).
FIGS. 2A-2D show ALDH1 regulates stemness and tumourigenic ability through the FoxM1 and Notch1 signalling pathways. […] Representative images show spheres generated from single-cell cultures after 10 days. The lower panel depicts the relative sphere formation ratio (scale bar=200 μm). […] V: vector.
(§1) Standard sphere formation assays were performed according to Zhang et al. (Zhang, S. et al. Cancer Res., 68, 4311-4320.) with minor modification. The cells (1×10^3) were resuspended in serum-free DMEM/F12 medium supplemented with 5 μg/ml insulin (Sigma), 20 ng/ml human recombinant epidermal growth factor (EGF; Invitrogen, Life Technologies, Carlsbad, Calif.) and 10 ng/ml basic fibroblast growth factor (bFGF; Invitrogen) in ultra-low attachment plates (Corning Costar, Corning, N.Y.). Spheres that arose within 1-2 weeks were counted. Colony diameters >50 μm were counted as a single-positive colony. The middle field was chosen for counting of spheres, and two fields for each plate were counted under a dissecting microscope. For all sphere formation experiments, a minimum of eight wells was run for each condition. All data represent the mean ±SEM of three separate experiments and at least 24 different fields.
(§2) An Aldefluor® kit (StemCell Technologies) was used to assess ALDH activity in the ovarian cancer cell lines, as previously described (Saw, Y. T. et al. (2012) BMC Cancer, 12, 329.). In brief, 1×10^6 cells were incubated in Aldefluor® assay buffer containing a 1.5 μM ALDH substrate for 30 min at 37° C. Each sample was treated with 50 μM of DEAB, and used as a negative control. Prior to analysis, cells were stained with […] of propidium iodide to evaluate their viability. The fluorescence intensity of the stained cells was analysed using a FACSAria cell sorter Flow Cytometer (BD Biosciences). The reaction with DEAB was used to define the baseline for the assay. The ALDH activity of a sample was determined to be ‘high’ or ‘low’ based on the fluorescence intensity beyond or below the threshold defined by the reaction with DEAB. The cells having high or low ALDH activity are marked “-High” or “-Low” hereafter.

The test system of experiment [2] is ES2 cells (ES2-High, ES2-Low). As to the kind of experiment: Sphere formation assay. The following applies: for sphere formation: ES2-High cells, different concentrations of Thiostrepton or DAPT; for decrease of sphere formation: ES2-Low cells, Thiostrepton or DAPT. The method, then: (§3) Right panel: relative fold changes of ALDH1 and FoxM1 expression compared with controls. […] Sphere formation in ES2-High cells after treatment with different concentrations of Thiostrepton or DAPT, and the relative fold changes in expression are shown (scale bar=200 μm).
as §1, §2

Experiment [3] relates to ALDH1, FoxM1, Notch1, Oct-4 and Nanog expression in A2780 and CP70 cells. As to the kind of experiment: Western blotting of ALDH1, FoxM1, Notch1 and CSC markers. The following applies: for ALDH1 expression / FoxM1 expression / Notch1 expression: A2780 and CP70 cells; for ALDH1 expression: 1 μM Thiostrepton or 10 μM DAPT; for FoxM1 expression / Notch1 expression: 1 μM Thiostrepton, 10 μM DAPT, or DEAB.

Experiment [4] deals with ALDH1, FoxM1 and Notch-1 expression in ES2 cells. Put plainly: Western blotting of ALDH1, FoxM1 and Notch1. The settings on record: ES2-High cells; for ALDH1 expression: Thiostrepton or DAPT; for FoxM1 expression / Notch1 expression: different concentrations of Thiostrepton or DAPT. On the procedure: as §3
The cells were lysed and then harvested using a cell lifter (Corning Costar). Protein concentrations were determined by Bio-Rad protein assay (Bio-Rad, Hercules, Calif.). Proteins were then separated by 10% sodium dodecyl sulphate-polyacrylamide gel electrophoresis and transferred to polyvinylidene difluoride membranes. Western blotting was performed using the following antibodies at the indicated dilutions: anti-ALDH1 (1:1000; BD Biosciences), anti-Oct4 (1:1000; BD Biosciences), anti-Nanog (1:1000; BD Biosciences), anti-Notch1 (1:1000; Abcam, Cambridge, UK), anti-FoxM1 (1:1000; Santa Cruz Biotechnology, Santa Cruz, Calif.) and anti-beta actin (1:5000; Sigma).

In experiment [5] the test system is A2780 and CP70 ovarian cancer cells. As to the kind of experiment: MTT cytotoxicity assay (proliferation, doubling time). Details: toxicity: dose or concentration left out as unconfirmed. The settings on record: for cell proliferation: A2780 and CP70 derived cells, inhibitor treatment. The method, then:
The cell lines were cultured in a humidified incubator containing 95% air and 5% CO2 at 37° C. in 96-well flat-bottomed microtiter plates. After 72 h of incubation, the in vitro cytotoxic effects of treatments were determined by MTT assay (at 570 nm).

Experiment [6] concerns ALDH1, FoxM1 and Notch-1 expression in ES2 cells. As to the kind of experiment: Western blotting of ALDH1, FoxM1 and Notch1. The settings on record: ES2-Low cells; Thiostrepton or DAPT. (A western blot detects proteins with antibodies after separation by electrophoresis.)
The test system of another experiment is ALDH1. Put plainly: Aldefluor assay of ALDH1 enzyme activity / ALDH1-High cell fraction. The following applies: A2780-Low and CP70-Low cells; ATRA (10 μM) or paclitaxel (60 ng/ml) for 4 days. On the procedure:
as §2

Structures are written as SMILES.

On to `C[C@H](NC(=O)Cc1cc(F)cc(F)c1)C(=O)N[C@H](C(=O)OC(C)(C)C)c1ccccc1` [DAPT, N-[2S-(3,5-difluorophenyl)acetyl]-L-alanyl-2-phenyl-1,1-dimethylethyl ester-glycine], for which the sphere formation efficiency result in experiment [1] is reported as “decreased sphere formation efficiency”. Moreover, in experiment [2], the sphere formation result is “decreased sphere formation in ES2-High cells in a dose-dependent manner” and the “decrease of sphere formation” value is recorded as “not observed”. The “FoxM1 expression in FoxM1-overexpressing cells” value in experiment [3] (A2780-FoxM1 cells, immunoblot, DAPT) was “failed to attenuate FoxM1 expression”. In experiment [3] (western blotting), the ALDH1 expression result was “did not affect ALDH1 expression”; the FoxM1 expression entry is “decreased Notch1 expression as well as FoxM1 expression, but to a lesser extent”; the Notch1 expression entry is on record as “decreased Notch1 expression”. Further, in experiment [4], the ALDH1 expression result is “did not affect ALDH1 expression”; the FoxM1 expression result was “downregulated the expression levels of both FoxM1 and Notch1 in ES2-High cells in a dose-dependent manner”; the Notch1 expression entry is “downregulated the expression levels of both FoxM1 and Notch1 in ES2-High cells in a dose-dependent manner”. Moreover, the cell proliferation result in experiment [5] is “did not affect proliferation”. In addition, the “downregulation of FoxM1 and Notch1 expression” value in experiment [6] was “not observed”.
Consider `CCN(CC)c1ccc(C=O)cc1` [DEAB, diethylaminobenzaldehyde], for which the sphere formation entry in experiment [1] (ALDH1-High A2780 or CP70 cells, DEAB treatment) is on record as “suppressed sphere formation”. Besides, in experiment [3] (western blotting), the FoxM1 expression result is reported as “downregulated” and the Notch1 expression result was “downregulated”. For the same compound, the “expression of CSC marker proteins FoxM1, Notch1, Oct 4 and Nanog” value in experiment [3] (ALDH1-High cells, DEAB treatment, western blotting) is given as “inhibited”. The cell proliferation result in experiment [5] is given as “did not affect cell proliferation”.
On to `C=C(NC(=O)C(=C)NC(=O)c1csc(C2=N[C@@H]3c4csc(n4)[C@H]4NC(=O)c5csc(n5)[C@H]([C@](C)(O)[C@@H](C)O)NC(=O)[C@H]5CSC(=N5)/C(=C/C)NC(=O)[C@H]([C@@H](C)O)NC(=O)c5csc(n5)[C@]3(CC2)NC(=O)[C@H](C)NC(=O)C(=C)NC(=O)[C@H](C)NC(=O)[C@H]([C@@H](C)CC)N[C@@H]2C=Cc3c([C@H](C)O)cc(nc3[C@H]2O)C(=O)O[C@@H]4C)n1)C(N)=O` [Thiostrepton, thiostrepton], for which the sphere formation efficiency result in experiment [1] is recorded as “decreased sphere formation efficiency”. In addition, in experiment [2], the sphere formation entry is “decreased sphere formation in ES2-High cells in a dose-dependent manner” and the “decrease of sphere formation” value is on record as “not observed”. In experiment [3] (western blotting), the ALDH1 expression result is recorded as “did not affect ALDH1 expression”, the FoxM1 expression entry is recorded as “reduced the expression not only of FoxM1 but also of Notch1” and the Notch1 expression entry is given as “reduced the expression not only of FoxM1 but also of Notch1”. Further, in experiment [4], the ALDH1 expression result is reported as “did not affect ALDH1 expression”; the FoxM1 expression entry was “downregulated the expression levels of both FoxM1 and Notch1 in ES2-High cells in a dose-dependent manner”; the Notch1 expression result is “downregulated the expression levels of both FoxM1 and Notch1 in ES2-High cells in a dose-dependent manner”. For the same compound, the toxicity entry in experiment [5] (A2780 and CP70-shALDH1 cells, effect not significant) is recorded as “slight toxicity”. Further, the “downregulation of FoxM1 and Notch1 expression” value in experiment [6] was “not observed”.
`CC(=O)O[C@H]1C(=O)[C@@]2(C)[C@H]([C@H](OC(=O)c3ccccc3)[C@]3(O)C[C@H](OC(=O)[C@H](O)[C@@H](NC(=O)c4ccccc4)c4ccccc4)C(C)=C1C3(C)C)[C@]1(OC(C)=O)CO[C@@H]1C[C@@H]2O` [paclitaxel]: the “proportion of ALDH1-High cells” value with ALDH1 is reported as “increased proportion of ALDH1-High cells”.

(Values after patent US20170209403A1, “METHOD FOR REGULATING ALDEHYDE DEHYDROGENASE 1” (National Cheng Kung University, priority 2016, published 2017).)
